pIC50: −log10 of the molar value. Where a name gives a salt, the structure may show the parent alone.
molecular target: T1, 5-HT4 receptor (Cavia porcellus, UniProt O70528); assay: Serotonin 4 (5-HT4) receptor binding assay; parameters: species or system guinea pig; details: not given
T1 construct: the mixture was suspended to give receptor membrane preparations; from tissue; host or cells: guinea pig (Slc-Hartley) brain striatum membranes
Description: 5-HT4 receptor binding assay and preparations of receptor membrane preparations were carried out according to a method of Grossman et al. [see British J. Pharmacol., (1993) 109, 618].
Slc-Hartley guinea pigs (body weight 300 to 400 g) were decapitated to remove brain rapidly, and striatum was isolated. To the obtained tissues were added fifteenfold of Hepes buffer (50 mM, pH7.4, 4° C.), and the mixture was homogenized by Teflon® homogenizer and centrifuged at 48,000×g (4° C.) for 15 minutes. To the resulting precipitate was added Hepes buffer (1 ml) to 30 mg by wet weight of tissues, and the mixture was suspended to give receptor membrane preparations.
0.1 nM [^3H]-GR113808 {chemical name: [1-[2-(methylsulfonylamino)ethyl]-4-piperidinyl]methyl 1-methylindole-3-carboxylate}, receptor membrane preparations, and Hepes buffer (50 mM, pH7.4, 4° C., 1 ml) containing test compounds or 30 μM serotonin were placed in an assay tube, and incubated at 37° C. for 30 minutes. On quenching the reaction, the mixture was rapidly filtered on whatman GF/B filter, which was presoaked in 0.1% polyethyleneimine for 1 hour, by using Brandel cell Harvester, and washed with ice-cooled 50 mM Tris-HCl (pH7.7, 4 ml) three times. To the filter after filtration was added ACS II scintillator, and then a radioactivity was determined by a liquid scintillation counter.
50% inhibition concentrations (IC50) were determined from inhibition rates of test compounds to specific bindings which were obtained by subtracting nonspecific bindings from total binding amounts of [^3H]-GR113808.

T1 sequence (O70528 whole entry): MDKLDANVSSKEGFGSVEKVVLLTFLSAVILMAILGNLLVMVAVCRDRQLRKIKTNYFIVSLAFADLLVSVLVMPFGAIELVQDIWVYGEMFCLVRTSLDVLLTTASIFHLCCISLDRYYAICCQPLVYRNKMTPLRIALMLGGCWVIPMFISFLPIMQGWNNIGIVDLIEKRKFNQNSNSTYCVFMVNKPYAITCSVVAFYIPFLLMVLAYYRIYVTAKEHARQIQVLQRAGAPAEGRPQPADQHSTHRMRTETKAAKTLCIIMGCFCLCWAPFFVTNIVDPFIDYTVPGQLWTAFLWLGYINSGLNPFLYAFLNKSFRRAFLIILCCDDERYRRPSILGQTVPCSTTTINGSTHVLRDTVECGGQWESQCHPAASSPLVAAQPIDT

Row | SMILES | pIC50
1 | COc1cc(N)c(Cl)cc1C(=O)NC[C@H]1CN(CC2CCN(C(=O)Oc3ccccc3)CC2)CCO1 [Example 106] | 8.21

same assay, conditions: inhibition of specific binding of 0.1 nM [3H]-GR113808; guinea pig striatum membrane preparations; 37° C., 30 minutes; read-out: IC50

Row | SMILES | pIC50
2 | COc1ccccc1NC(=O)N1CCC(CN2CCO[C@@H](CNC(=O)c3cc(Cl)c(N)cc3OC)C2)CC1 [Example 53] | 8.84
3 | COc1cc(N)c(Cl)cc1C(=O)NC[C@H]1CN(CC2CCN(C(=O)c3cccc(OC(C)=O)c3)CC2)CCO1 [Example 168] | 8.29
4 | CCOc1cc(N)c(Cl)cc1C(=O)NCC1CN(CC2CCN(C(=O)c3cccc(F)c3)CC2)CCO1 (stereo not drawn) [Example 114] | 8.65
5 | COc1cc(N)c(Cl)cc1C(=O)NC[C@H]1CN(CC2CCN(C(=O)c3ccc(C)s3)CC2)CCO1 [Example 178] | 8.91
6 | COc1cc(N)c(Cl)cc1C(=O)NC[C@H]1CN(CC2CCN(C(=O)Nc3cccc(C(C)=O)c3)CC2)CCO1 [Example 56] | 8.54
7 | CCOc1cc(N)c(Cl)cc1C(=O)NCC1CN(CC2CCN(C(=O)N3CCCC3)CC2)CCO1 (stereo not drawn) [Example 90, 4-amino-5-chloro-2-ethoxy-N-[{4-[(1-(1-pyrrolidinecarbonyl)-4-piperidinyl)-methyl]-2-morpholinyl}methyl]benzamide 1.5 fumarate] | 8.16
8 | COc1cc(N)c(Cl)cc1C(=O)NC[C@H]1CN(CC2CCN(C(=O)NCc3ccccc3)CC2)CCO1 [Example 59] | 8.55
9 | Nc1c(Cl)cc(C(=O)NCC2CN(CC3CCN(C(=O)N4CCCC4)CC3)CCO2)c2c1CCO2 (stereo not drawn) [Example 134] | 8.82
10 | COc1cc(N)c(Cl)cc1C(=O)NC[C@H]1CN(CC2CCN(C(=O)c3cccc(Br)c3)CC2)CCO1 [Example 117] | 10.40
11 | C=CC=CC(=O)N1CCC(CN2CCOC(CNC(=O)c3cc(Cl)c(N)cc3OCC)C2)CC1 (racemic) [Example 163] | 8.18
12 | COc1cc(N)c(Cl)cc1C(=O)NC[C@H]1CN(CC2CCN(C(=O)c3cccc4c3OCC4)CC2)CCO1 [Example 177] | 8.79

Other lines, results leading:

Row | pIC50 | SMILES
13 | 7.99 | COc1cc(N)c(Cl)cc1C(=O)NC[C@H]1CN(CC2CCN(C(=O)CC3CCNCC3)CC2)CCO1 [Example 194]
14 | 8.07 | COC(=O)c1ccc(C(=O)N2CCC(CN3CCO[C@@H](CNC(=O)c4cc(Cl)c(N)cc4OC)C3)CC2)cc1 [Example 174]
15 | 8.10 | C=CCCCCC(=O)N1CCC(CN2CCOC(CNC(=O)c3cc(Cl)c(N)cc3OCC)C2)CC1 (racemic) [Example 162]
16 | 8.12 | C=CCCC=CC(=O)N1CCC(CN2CCOC(CNC(=O)c3cc(Cl)c(N)cc3OCC)C2)CC1 (racemic) [Example 164]
17 | 8.21 | COc1cc(N)c(Cl)cc1C(=O)NC[C@H]1CN(CC2CCN(C(=O)c3ccc(-c4ccccc4)cc3)CC2)CCO1 [Example 175]
18 | 8.25 | COc1cc(N)c(Cl)cc1C(=O)NC[C@H]1CN(CC2CCN(C(=O)c3ccccc3Oc3ccccc3)CC2)CCO1 [Example 170]
19 | 8.34 | COc1cc(N)c(Cl)cc1C(=O)NC[C@H]1CN(CC2CCN(C(=O)c3ccc(O)cc3)CC2)CCO1 [Example 202]
20 | 8.35 | COc1cc(N)c(Cl)cc1C(=O)NC[C@H]1CN(CC2CCN(C(=O)c3cccc(O)c3)CC2)CCO1 [Example 201]
21 | 8.37 | CN(C)C(=O)N1CCC(CN2CCO[C@@H](CNC(=O)c3cc(Cl)c(N)c4c3OCC4)C2)CC1 [Example 136]
22 | 8.43 | COc1ccc(CNC(=O)N2CCC(CN3CCO[C@@H](CNC(=O)c4cc(Cl)c(N)cc4OC)C3)CC2)cc1 [Example 61]
23 | 8.55 | CS(=O)(=O)N1CCC(CN2CCOC(CNC(=O)c3cc(Cl)c(N)c4c3OCC4)C2)CC1 (stereo not drawn) [Example 140]
24 | 8.58 | COc1cc(N)c(Cl)cc1C(=O)NC[C@H]1CN(CC2CCN(C(=O)c3ccc(C)cc3)CC2)CCO1 [Example 120]
25 | 8.73 | COc1cc(N)c(Cl)cc1C(=O)NC[C@H]1CN(CC2CCN(C(=O)NCc3ccccc3C)CC2)CCO1 [Example 60]
26 | 9.06 | COc1cc(N)c(Cl)cc1C(=O)NC[C@H]1CN(CC2CCN(C(=O)c3ccc(N(C)C)cc3)CC2)CCO1 [Example 172]
27 | 9.14 | COc1cc(N)c(Cl)cc1C(=O)NC[C@H]1CN(CC2CCN(C(=O)c3ccc(N)c(Cl)c3)CC2)CCO1 [Example 176]

Reference: patent publication US7906510B2, “Amide derivative and pharmaceutical composition containing the same” (Dainippon Sumito Pharma Co., Ltd., priority 2008, dated 2011)
